Measured values from patent US10681909B2, “Herbicidal triazoles” (FMC Corporation, priority 2014, dated 2020).

Columns and labels:
[1] = test system: sedge, umbrella; test: Test C flooded paddy test; format: in vivo, Cyperus difformis; conditions: Flood, applied to paddy water, rating after 13 to 15 d
From the text: (§1) At time of treatment, test pots were flooded to 3 cm above the soil surface, treated by application of test compounds directly to the paddy water, and then maintained at that water depth for the duration of the test. Treated plants and controls were maintained in a greenhouse for 13 to 15 d, after which time all species were compared to controls and visually evaluated. […] A dash (-) response means no test result.

[2] = test system: velvetleaf; test: Test A preemergence; format: in vivo, Abutilon theophrasti; conditions: 0 to 100 scale (0 no effect, 100 complete control)
Summary of the method: (§2)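 Test chemicals, formulated in a surfactant-containing non-phytotoxic solvent mixture, are applied either as a directed soil spray to newly planted seeds or as a postemergence application to plants at the one- to two-leaf stage (2–10 cm). All plants grow in a loam soil and sand blend.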

[3] = test system: morningglory; test: Test A postemergence; format: in vivo, Ipomoea spp.; conditions: 0 to 100 scale (0 no effect, 100 complete control), approx. 10 d
Summary of the method: as §2

[4] = test system: foxtail, giant; test: Test A preemergence; format: in vivo, Setaria faberii; conditions: 0 to 100 scale (0 no effect, 100 complete control)
Summary of the method: as §2

[5] = test system: crabgrass, large; test: Test A postemergence; format: in vivo, Digitaria sanguinalis; conditions: 0 to 100 scale (0 no effect, 100 complete control), approx. 10 d
Summary of the method: as §2

[6] = test system: foxtail, giant; test: Test A postemergence; format: in vivo, Setaria faberii; conditions: 0 to 100 scale (0 no effect, 100 complete control), approx. 10 d
Summary of the method: as §2

[7] = test system: ducksalad; test: Test C flooded paddy test; format: in vivo, Heteranthera limosa; conditions: Flood, applied to paddy water, rating after 13 to 15 d
From the text: as §1

[8] = test system: corn; test: Test A preemergence; format: in vivo, Zea mays; conditions: 0 to 100 scale (0 no effect, 100 complete control)
Summary of the method: as §2

[9] = test system: morningglory; test: Test A preemergence; format: in vivo, Ipomoea spp.; conditions: 0 to 100 scale (0 no effect, 100 complete control)
Summary of the method: as §2

[10] = test system: pigweed; test: Test A preemergence; format: in vivo, Amaranthus retroflexus; conditions: 0 to 100 scale (0 no effect, 100 complete control)
Summary of the method: as §2

[11] = test system: barnyardgrass; test: Test A postemergence; format: in vivo, Echinochloa crus-galli; conditions: 0 to 100 scale (0 no effect, 100 complete control), approx. 10 d
Summary of the method: as §2

[12] = test system: crabgrass, large; test: Test A preemergence; format: in vivo, Digitaria sanguinalis; conditions: 0 to 100 scale (0 no effect, 100 complete control)
Summary of the method: as §2

[13] = test system: wheat; test: Test A preemergence; format: in vivo, Triticum aestivum; conditions: 0 to 100 scale (0 no effect, 100 complete control)
Summary of the method: as §2

[14] = test system: pigweed; test: Test A postemergence; format: in vivo, Amaranthus retroflexus; conditions: 0 to 100 scale (0 no effect, 100 complete control), approx. 10 d
Summary of the method: as §2

[15] = test system: wheat; test: Test A postemergence; format: in vivo, Triticum aestivum; conditions: 0 to 100 scale (0 no effect, 100 complete control), approx. 10 d
Summary of the method: as §2

[16] = test system: corn; test: Test A postemergence; format: in vivo, Zea mays; conditions: 0 to 100 scale (0 no effect, 100 complete control), approx. 10 d
Summary of the method: as §2

[17] = test system: velvetleaf; test: Test A postemergence; format: in vivo, Abutilon theophrasti; conditions: 0 to 100 scale (0 no effect, 100 complete control), approx. 10 d
Summary of the method: as §2

[18] = test system: barnyardgrass; test: Test A preemergence; format: in vivo, Echinochloa crus-galli; conditions: 0 to 100 scale (0 no effect, 100 complete control)
Summary of the method: as §2

[19] = test system: barnyardgrass; test: Test C flooded paddy test; format: in vivo, Echinochloa crus-galli; conditions: Flood, applied to paddy water, rating after 13 to 15 d
From the text: as §1

[20] = test system: rice; test: Test C flooded paddy test; format: in vivo, Oryza sativa; conditions: Flood, applied to paddy water, rating after 13 to 15 d
From the text: as §1

## Cc1nc(-c2ccc(C(F)(F)F)cc2)nn1Cc1cccc(C(F)(F)F)c1 [Compound 3]
[1]; 31 g ai/ha
  Sedge, Umbrella plant response rating (0 to 100): 0
[1]; 62 g ai/ha
  Sedge, Umbrella plant response rating (0 to 100): 0
[1]; 125 g ai/ha
  Sedge, Umbrella plant response rating (0 to 100): 40
[1]; 250 g ai/ha
  Sedge, Umbrella plant response rating (0 to 100): 50
[2]; 125 g ai/ha
  Plant response rating, Velvetleaf: 0
[2]; 500 g ai/ha, approx. 10 d
  Plant response rating, Velvetleaf: 0
[3]; 125 g ai/ha
  Plant response rating, Morningglory: 40
[3]; 500 g ai/ha
  Plant response rating, Morningglory: 80
[4]; 125 g ai/ha
  Plant response rating, Foxtail, Giant: 0
[4]; 500 g ai/ha, approx. 10 d
  Plant response rating, Foxtail, Giant: 30
[5]; 125 g ai/ha
  Plant response rating, Crabgrass, Large: 10
[5]; 500 g ai/ha
  Plant response rating, Crabgrass, Large: 40
[6]; 125 g ai/ha
  Plant response rating, Foxtail, Giant: 10
[6]; 500 g ai/ha
  Plant response rating, Foxtail, Giant: 30
[7]; 31 g ai/ha
  Ducksalad plant response rating (0 to 100): 0
[7]; 62 g ai/ha
  Ducksalad plant response rating (0 to 100): 20
[7]; 125 g ai/ha
  Ducksalad plant response rating (0 to 100): 30
[7]; 250 g ai/ha
  Ducksalad plant response rating (0 to 100): 40
[8]; 125 g ai/ha
  Plant response rating, Corn: 0
[8]; 500 g ai/ha, approx. 10 d
  Plant response rating, Corn: 0
[9]; 125 g ai/ha
  Plant response rating, Morningglory: 0
[9]; 500 g ai/ha, approx. 10 d
  Plant response rating, Morningglory: 0
[10]; 125 g ai/ha
  Plant response rating, Pigweed: 10
[10]; 500 g ai/ha, approx. 10 d
  Plant response rating, Pigweed: 80
[11]; 125 g ai/ha
  Plant response rating, Barnyardgrass: 0
[11]; 500 g ai/ha
  Plant response rating, Barnyardgrass: 10
[12]; 125 g ai/ha
  Plant response rating, Crabgrass, Large: 0
[12]; 500 g ai/ha, approx. 10 d
  Plant response rating, Crabgrass, Large: 40
[13]; 125 g ai/ha
  Plant response rating, Wheat: 0
[13]; 500 g ai/ha, approx. 10 d
  Plant response rating, Wheat: 0
[14]; 125 g ai/ha
  Plant response rating, Pigweed: 60
[14]; 500 g ai/ha
  Plant response rating, Pigweed: 100
[15]; 125 g ai/ha
  Plant response rating, Wheat: 0
[15]; 500 g ai/ha
  Plant response rating, Wheat: 0
[16]; 125 g ai/ha
  Plant response rating, Corn: 10
[16]; 500 g ai/ha
  Plant response rating, Corn: 20
[17]; 125 g ai/ha
  Plant response rating, Velvetleaf: 10
[17]; 500 g ai/ha
  Plant response rating, Velvetleaf: 40
[18]; 125 g ai/ha
  Plant response rating, Barnyardgrass: 0
[18]; 500 g ai/ha, approx. 10 d
  Plant response rating, Barnyardgrass: 0
[19]; 31 g ai/ha
  Barnyardgrass plant response rating (0 to 100): 0
[19]; 62 g ai/ha
  Barnyardgrass plant response rating (0 to 100): 20
[19]; 125 g ai/ha
  Barnyardgrass plant response rating (0 to 100): 20
[19]; 250 g ai/ha
  Barnyardgrass plant response rating (0 to 100): 20
[20]; 31 g ai/ha
  Rice plant response rating (0 to 100): 0
[20]; 62 g ai/ha
  Rice plant response rating (0 to 100): 0
[20]; 125 g ai/ha
  Rice plant response rating (0 to 100): 0
[20]; 250 g ai/ha
  Rice plant response rating (0 to 100): 0
